# Test results reported in patent US8722654B2, “Lipoxin analogs as novel inhibitors of angiogenesis” (The Brigham and Women's Hospital, Inc., priority 2001, dated 2014).
# How the values were obtained:
# HUVEC [1] = test: HUVEC proliferation induced by the compound alone (MTT); assay type: cell-based, human
# Protocol: (§1) Human umbilical vein endothelial cells (HUVEC) were isolated by 0.1% collagenase digestion (Worthington Biochemical, Bedford, Mass.) and propagated on gelatin-coated (0.1%) tissue culture plates in medium 199 (Gibco BRL, Grand Island, N.Y.) supplemented with 20% heat-inactivated fetal bovine serum (BioWhittaker, Walkersville, Md.), 50 μg/ml of endothelial cell mitogen (Biomedical Technologies, Stoughton, Mass.), 8 U/ml heparin (APP, Los Angeles, Calif.), 50 U/ml penicillin and 15 μg/ml streptomycin. Only passages 2 and 3 were used in reported experiments.
# (§2) HUVEC (5×10^3) were plated in 96-well plates coated with 0.1% gelatin for 1 h at room temperature. After 24 h, the medium was removed and replaced with fresh medium 199 supplemented with 5% fetal bovine serum and different concentrations of recombinant human VEGF165 (R&D Systems, Minneapolis, Minn.), LTD4 or LTB4. Endothelial cells were enumerated after 72 h using the MTT® assay (Sigma, St. Louis, Mo.) (15). ATL-1 was prepared as in Clish et al. (13). Percent inhibition was evaluated in a similar manner and included a 15 minute incubation (37° C.) with 15-epi-lipoxin A4, 15-epi-16-(para-fluoro)-phenoxy-lipoxin A4 methyl ester (ATL-1), LXA4, 15-epi-LXA4 or 15-R/S-methyl, LXA4 prior to the addition of agonists. All incubations were performed in triplicate. Before each experiment the integrity and concentration of ATL-1, LXA4, 15-epi-LXA4 or 15-R/S-methyl, LXA4 was assessed by physical methods including LC/MS/MS and UV (13).
# murine air pouch = test: Inflammatory angiogenesis, VEGF-treated murine air pouch; assay type: in vivo, mice (BALB/c)
# Protocol: Angiogenesis was assessed with murine air pouches that were raised via subcutaneous injection of sterile air (3 ml) beneath the dorsal skin of anesthetized mice (BALB/c, male 6-8 wk). After 24 hrs, ATL-1 (10 μg/pouch) or vehicle was delivered locally, immediately before the injection of VEGF (1 μg/pouch). The vascular content was assessed by the formation of vascular casts (as in 16). Briefly, mice were anesthetized (at 144 h) and peripheral vasodilation was raised by placing the animals in a heated jacket (40° C., 10 min). Vascular casts were formed by the i.v. injection of 1 ml 5% carmine red (Sigma) in 5% gelatin solution warmed to 40° C. Air pouch linings were dissected and weighed. The tissue was then dissolved in 2 ml of 3 N NaOH solution for 0.5 h, 21° C. and completely digested in hot water (56° C.) for 10 min. Digested samples were centrifuged (2500 rpm, 15 min) and filtered through a 0.45 μm filter. The dye content was quantified employing a 96-well plate spectrophotometer at 530 nm using a calibration curve. The results were expressed as vascular index (VI) as micrograms carmine dye/milligram weight of tissue, for n=4 animals/group. For visualization of the vasculature, the dorsal surface of the pouches was excised and fixed in formalin for 48 h. The tissues were dehydrated with 100% ethanol (5 days, 4° C.) and cleared by immersion in cedar wood oil for 2 weeks. In another set of experiments, mice were anesthetized and injected i.v. with 200 μl of 0.05 g/ml fluorescein isothiocyanate-dextran (Sigma) in PBS at 144 h immediately before sacrifice. Dissected linings were fixed, mounted on glass slides and examined for fluorescence (Nikon Eclipse model E600). In both protocols, the observers were not blinded to the treatments.
# Air pouch membranous tissues were fixed in 10% buffered formalin overnight and processed for paraffin embedding. Five-micrometer paraffin sections of membrane tissue cut on face were used for immunohistochemistry for CD31 expression. Briefly, slides were deparaffinized and pretreated in 0.25% trypsin (Sigma Chemical) for 20 min at 37° C., followed by washing in distilled water. All further steps were performed at room temperature in a hydrated chamber. Slides were pretreated with Peroxidase Block (DAKO, Carpinteria, Calif.) for 5 min to quench endogenous peroxidase activity, followed by a 1:5 dilution of goat serum in 50 Mm Tris-Cl, pH 7.4, for 20 min to block nonspecific binding sites. Primary rat anti-murine CD31 antibody (BD PharMingen, San Diego, Calif.) was applied at a 1:100 dilution in 50 mMTris-Cl, pH 7.4, with 3% goat serum for 1 h. After washing in 50 mM Tris-Cl, pH 7.4, secondary rabbit anti-rat antibody (DAKO) was applied at a 1:200 dilution in 50 mM Tris-Cl, pH 7.4, with 3% goat serum for 30 min. Slides were washed again in 50 mM Tris-Cl, pH 7.4, and goat anti-rabbit horseradish peroxidase-conjugated antibody (Envision detection kit: DAKO) was applied for 30 min. After further washing, immunoperoxidase staining was developed using a DAB chromogen kit (DAKO) per the manufacturer and counterstained with hematoxylin.
# HUVEC [2] = test: Endothelial cell migration, 48-well chemotaxis chamber; assay type: cell-based, human; details: for induction of endothelial cell migration, compound alone: 100 nM, no VEGF
# Protocol: VEGF, ATL-1 or vehicle were added to the lower wells of a 48-well chemotaxis chamber (NeuroProbe, Cabin John, Md.). The wells were overlaid with a 10 μm pore size polycarbonate filter coated with 0.1% gelatin. HUVEC (1×10^6) were placed in the upper wells and the chamber was incubated (37° C., 5% CO2 for 12 h). Following incubations, filters were removed, scraped of cells from the upper surface, fixed and stained with Diff-Quik (Dade Behring, Newark, Del.). Cells that migrated across the filter toward the lower surface were enumerated by light microscopy; four fields were counted at high magnification (100×). Incubations were performed in triplicate. To assess inhibition, endothelial cells were suspended in media with vehicle or ATL-1 for 15 min before placement in the chamber.
# HUVEC [3] = test: Inhibition of VEGF-stimulated HUVEC proliferation (MTT); assay type: cell-based, human; details: for % inhibition of VEGF-stimulated proliferation: equimolar 10 nM, representative experiment
# Protocol: as §1, §2
# HUVEC [4] = test: Inhibition of LTD4-stimulated HUVEC proliferation (MTT); assay type: cell-based, human; details: LTD4 10 nM; ATL-1 0.1-100 nM; read-out: IC50, antagonism of mitogenic action of LTD4
# Protocol: as §1
# as §2, with “Endothelial cells were enumerated after 72 h using the MTT® assay (Sigma, St. Louis, Mo.) (15). ATL-1 was prepared as in Clish et al. (13).” left out, “All incubations were performed in triplicate.” left out
# HUVEC [5] = test: HUVEC viability, trypan blue exclusion assay; assay type: cell-based, human; details: after exposure to ATL-1
# HUVEC [6] = test: Quantitative determination of DNA fragmentation (apoptosis); assay type: cell-based, human; details: 100 nM alone or with VEGF 3 ng/ml; n=2, d=3
# Protocol: DNA fragmentation in individual apoptotic cells was quantitated using a photometric enzyme immunoassay (Apotosis detection kit: R&D Systems). HUVECs grown in 96-well microtiter plates (5×10^3 cells/well) were incubated for 3 days, fixed with 3.7% formaldehyde, and permeabilized with proteinase K before the labeling. Biotinylated nucleotides are incorporated onto the DNA fragments and detected by using steptavidin-horseradish peroxidase conjugate followed by the substrate TACS-Sapphire.
# [7] = Mean arterial pressure after i.v. dosing; assay type: in vivo; details: 10 μg/mouse i.v.
molecule,measurement,setting,value
"CCCCC/C=C\C[C@@H](O)/C=C/C=C/C=C\[C@@H](O)CCCC(=O)O [LTB4, reference compound]",stimulated proliferation of HUVEC,HUVEC [1]; 10 nM,did not give a significant response
same,"neovascularization, compound alone","murine air pouch; 10 μg/pouch alone, n=2",stimulated neovascularization
"CCCCCC(C)(O)/C=C/C=C\C=C\C=C\[C@@H](O)[C@@H](O)CCCC(=O)OC (relative stereo) [15-R/S-methyl, LXA4, 5S,6R,15R/S-trihydroxy-15-methyl-7,9,13-trans-11-cis-eicosatetraenoic acid, methyl ester]","induction of endothelial cell migration, compound alone",HUVEC [2],did not induce endothelial cell migration
same,inhibition of VEGF-stimulated HUVEC migration,HUVEC [2]; VEGF 3 ng/ml,concentration-dependent inhibition
"CCCCC[C@H](O)/C=C/C=C\C=C\C=C\[C@@H](O)[C@@H](O)CCCC(=O)O (relative stereo) [LXA4, 5S,6R,15S-trihydroxy-7,9,13-trans-11-cis-eicosatetraenoic acid]",% inhibition of VEGF-stimulated proliferation,HUVEC [3],38.1±2.0%
same,"induction of endothelial cell migration, compound alone",HUVEC [2],did not induce endothelial cell migration
same,inhibition of VEGF-stimulated HUVEC migration,HUVEC [2]; VEGF 3 ng/ml,concentration-dependent inhibition
CCCCC[C@H](O)[C@H](O)/C=C/C=C/C=C\C=C\[C@@H](O)CCCC(=O)O [15-epi-LXB4],Percent of Proliferation,HUVEC [1]; 0.1 nM,20.1 ± 1.2%
same,Percent of Proliferation,HUVEC [1]; 1.0 nM,26.1 ± 2.8%
same,Percent of Proliferation,HUVEC [1]; 10 nM,34.0 ± 2.5%
same,Percent of Proliferation,HUVEC [1]; 100 nM,35.2 ± 5.2%
VEGF [reference compound],"VEGF response, proliferation of HUVEC",HUVEC [1]; VEGF comparison in LTD4 experiment,52.7±1.6%
same,VEGF-induced proliferation,"HUVEC [1]; footnote of table, VEGF comparison",VEGF-induced proliferation: 50.4 ± 4.0%
"O=C(O)CCC[C@H](O)[C@H](O)/C=C/C=C/C=C\C=C\[C@@H](O)COc1ccc(F)cc1 [ATL-1, 15-epi-16-(para-fluoro)-phenoxy-lipoxin A4]",% of VEGF-stimulated proliferation,"HUVEC [3]; ATL-1 plus genistein 50 μM, 5 min, 37° C., n=3",78.0±6.21%
same,% of VEGF-stimulated proliferation,HUVEC [3]; ATL-1 without genistein,38.0±2.5%
same,IC50,"HUVEC [3]; VEGF 3 ng/ml, 3 days, MTT, read-out: IC50, inhibition of VEGF-stimulated proliferation of HUVECs",~3 nM
same,concentration of maximal plateau of inhibition,HUVEC [3]; VEGF-stimulated proliferation,10 nM
same,% inhibition of VEGF-stimulated proliferation,HUVEC [3],63.3±3.3%
same,"action on HUVEC proliferation, analog alone","HUVEC [1]; 100 nM, no VEGF",no apparent actions
same,IC50,HUVEC [4],~3 nM
same,maximum level of inhibition of VEGF-stimulated HUVEC migration,"HUVEC [2]; 10 nM, VEGF 3 ng/ml",~45%
same,"induction of endothelial cell migration, compound alone",HUVEC [2],did not induce endothelial cell migration
same,inhibition of VEGF-stimulated HUVEC migration,HUVEC [2]; VEGF 3 ng/ml,concentration-dependent inhibition
same,HUVEC remaining viable,HUVEC [5],~98%
same,DNA fragmentation pattern,HUVEC [6],Neither the ATL-1 (100 nM) alone nor in combination with VEGF (3 ng/ml) affected DNA fragmentation pattern
same,reduction in the vascular index,"murine air pouch; 10 μg/pouch local, before VEGF 1 μg/pouch, day 6",~48%
same,"VEGF-elicited vasculature, fluorescein isothiocyanate-dextran microscopy","murine air pouch; 10 μg/pouch, day 6",striking reduction of VEGF-elicited vasculature
same,vessels by CD31 immunohistochemical staining,murine air pouch; VEGF-treated mice,marked diminution of vessels
same,"vascular density, carmine vascular casts","murine air pouch; VEGF-treated, day 6 air pouch linings",clearly reduced vascular density
same,changes in mean arterial pressure,[7],does not evoke apparent changes
"CCCCC/C=C\C\C=C/C=C/C=C/[C@@H](SC[C@H](N)C(=O)NCC(=O)O)[C@@H](O)CCCC(=O)O [LTD4, reference compound]",effect of LTD4 on VEGF-stimulated proliferation,HUVEC [3],did not enhance or inhibit
same,stimulated proliferation of HUVEC,HUVEC [1]; 10 nM,42±1.2%
CCCCC[C@H](O)[C@@H](O)/C=C/C=C/C=C\C=C\[C@@H](O)CCCC(=O)O [14-epi-LXB4],Percent of Proliferation,HUVEC [1]; 0.1 nM,15.5 ± 1.0%
same,Percent of Proliferation,HUVEC [1]; 1.0 nM,18.3 ± 1.6%
same,Percent of Proliferation,HUVEC [1]; 10 nM,27.0 ± 5.0%
same,Percent of Proliferation,HUVEC [1]; 100 nM,27.7 ± 1.3%
"CCCCC[C@@H](O)/C=C/C=C\C=C\C=C\[C@@H](O)[C@@H](O)CCCC(=O)O (relative stereo) [15-epi-LXA4, 5S,6R,15R-trihydroxy-7,9,13-trans-11-cis-eicosatetraenoic acid]",% inhibition of VEGF-stimulated proliferation,HUVEC [3],59.8±1.8%
same,"induction of endothelial cell migration, compound alone",HUVEC [2],did not induce endothelial cell migration
same,inhibition of VEGF-stimulated HUVEC migration,HUVEC [2]; VEGF 3 ng/ml,concentration-dependent inhibition
